Measured values taken from ChEMBL document CHEMBL1144936, “Orally active oxime derivatives of the dopaminergic prodrug 6-(N,N-di-n-propylamino)-3,4,5,6,7,8-hexahydro-2H-naphthalen-1-one. Synthesis and pharmacological activity” (J Med Chem, 2003).
Activity calls are given as the source filed them. No cut-off for these calls is given here.

Assays:
D(2) dopamine receptor [1] = biological target: D(2) dopamine receptor (Homo sapiens, UniProt P14416); assay: Tested for percent intrinsic activity towards Dopamine receptor D2 in CHO cells; assay type: cell-based
Chain of D(2) dopamine receptor (Homo sapiens, UniProt P14416) (P14416 whole entry): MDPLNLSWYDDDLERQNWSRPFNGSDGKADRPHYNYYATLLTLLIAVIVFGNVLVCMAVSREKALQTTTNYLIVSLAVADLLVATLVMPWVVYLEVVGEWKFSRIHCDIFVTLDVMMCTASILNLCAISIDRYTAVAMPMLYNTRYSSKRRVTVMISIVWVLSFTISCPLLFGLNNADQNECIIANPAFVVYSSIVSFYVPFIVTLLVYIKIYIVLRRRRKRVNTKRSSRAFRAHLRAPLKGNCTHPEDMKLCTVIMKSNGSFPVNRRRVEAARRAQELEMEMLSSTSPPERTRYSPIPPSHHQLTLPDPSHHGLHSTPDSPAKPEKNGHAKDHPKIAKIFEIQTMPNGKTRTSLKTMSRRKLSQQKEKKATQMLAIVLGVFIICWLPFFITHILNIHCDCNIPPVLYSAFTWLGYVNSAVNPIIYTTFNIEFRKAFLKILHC

Rattus norvegicus [2] = assay: Effect of compound on total full contralateral turns at the dose of 0.3 mg/Kg administered perorally in ungerstedt rat model; assay type: functional
Rattus norvegicus [3] = assay: Effect of compound on total full contralateral turns at the dose of 1.0 mg/Kg administered perorally in ungerstedt rat model; assay type: functional
D(2) dopamine receptor [4] = biological target: D(2) dopamine receptor (Rattus norvegicus, UniProt P61169); assay: In vitro binding affinity towards Dopamine receptor D2
Chain of D(2) dopamine receptor (Rattus norvegicus, UniProt P61169) (P61169 whole entry): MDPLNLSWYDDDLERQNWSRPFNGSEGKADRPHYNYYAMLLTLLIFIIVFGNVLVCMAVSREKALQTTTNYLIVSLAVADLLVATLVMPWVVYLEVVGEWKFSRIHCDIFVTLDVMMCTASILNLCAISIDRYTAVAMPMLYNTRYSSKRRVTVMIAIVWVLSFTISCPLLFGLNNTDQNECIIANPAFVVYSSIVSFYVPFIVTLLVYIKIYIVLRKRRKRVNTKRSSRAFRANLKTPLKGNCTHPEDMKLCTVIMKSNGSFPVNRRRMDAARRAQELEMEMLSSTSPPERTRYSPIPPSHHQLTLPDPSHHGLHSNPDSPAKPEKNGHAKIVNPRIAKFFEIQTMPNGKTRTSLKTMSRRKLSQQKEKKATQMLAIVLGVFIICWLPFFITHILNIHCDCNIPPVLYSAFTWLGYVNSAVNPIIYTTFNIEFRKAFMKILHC

D(1A) dopamine receptor = D(1A) dopamine receptor (Rattus norvegicus, UniProt P18901); assay: In vitro binding affinity towards Dopamine receptor D1
Chain of D(1A) dopamine receptor (P18901 whole entry): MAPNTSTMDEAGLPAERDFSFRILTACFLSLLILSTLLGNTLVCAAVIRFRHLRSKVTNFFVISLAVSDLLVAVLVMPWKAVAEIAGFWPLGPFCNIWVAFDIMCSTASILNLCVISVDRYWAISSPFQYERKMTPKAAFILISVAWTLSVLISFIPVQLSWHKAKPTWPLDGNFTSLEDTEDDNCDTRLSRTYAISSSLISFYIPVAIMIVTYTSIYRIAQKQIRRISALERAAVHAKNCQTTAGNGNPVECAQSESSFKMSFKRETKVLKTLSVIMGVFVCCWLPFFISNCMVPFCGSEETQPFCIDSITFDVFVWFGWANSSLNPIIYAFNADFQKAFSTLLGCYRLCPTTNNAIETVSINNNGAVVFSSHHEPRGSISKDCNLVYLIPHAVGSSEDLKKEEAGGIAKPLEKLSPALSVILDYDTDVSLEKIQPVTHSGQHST

Rattus norvegicus [5] = assay: Effect of compound on total full contralateral turns at the dose of 10 mg/Kg administered perorally in ungerstedt rat model; […]; assay type: functional, organism-based
Rattus norvegicus [6] = assay: Effect of compound on total full contralateral turns at the dose of 10 mg/Kg administered perorally in ungerstedt rat model; assay type: functional

SMILES | Turns (Rattus norvegicus [2]) | Turns (Rattus norvegicus [3]) | also measured
CCCN(CCC)C1CCC2=C(CCC/C2=N\OC)C1 (racemic) | 1007 | 5295 | EC50 (D(2) dopamine receptor [1]): > 1000 nM; Ki (D(2) dopamine receptor [4]): 2300 nM
CCCO/N=C1\CCCC2=C1CCC(N(CCC)CCC)C2 (stereo unspecified) | 943 | 5406 | 
CCCN(CCC)C1CCC2=C(CCC/C2=N\OC(=O)C(C)(C)C)C1 (stereo unspecified) | 187 |  | 
CCCN(CCC)C1CCC2=C(CCC/C2=N\OCc2ccccc2)C1 (stereo unspecified) | 1652 | 4702 | 
CCCN(CCC)C1CCC2=C(CCC/C2=N\OC(C)=O)C1 (stereo unspecified) | 365 |  | 
CCCN(CCC)C1CCC2=C(CCC/C2=N\OC(=O)c2ccccc2)C1 (stereo unspecified) |  | 2208 | 
CCCCO/N=C1\CCCC2=C1CCC(N(CCC)CCC)C2 (stereo unspecified) |  | 1364 | 
CCCN(CCC)C1CCC2=C(CCC/C2=N\OCC)C1 (stereo unspecified) | 176 | 4217 | 
CCCN(CCC)C1CCC2=C(CCC/C2=N\OC(C)(C)C)C1 (stereo unspecified) |  | 2118 | 
CCCN(CCC)C1CCc2c(ccc(O)c2O)C1 (racemic) |  |  | Ki (D(1A) dopamine receptor): 170 nM; Ki (D(2) dopamine receptor [4]): 3 nM
CCCN(CCC)[C@H]1CCC2=C(CCC/C2=N\OC(C)=O)C1 | 2007 |  | 
CCCN(CCC)C1CCC2=C(CCC/C2=N\OC(=O)c2ccc(C)cc2)C1 (stereo unspecified) |  |  | Turns (Rattus norvegicus [5]): inactive
CCCN(CCC)C1CCC2=C(CCC/C2=N\OC(=O)C(C)C)C1 (stereo unspecified) | 152 |  | 
CCCN(CCC)[C@H]1CCC2=C(CCC/C2=N\OC)C1 |  |  | Turns (Rattus norvegicus [6]): 2014
